Measured values taken from patent US11311522B1 (Cavion, Inc., priority 2018, dated 2022).
“And” between values parts separate entries of the source, which are not always exact repeats. Equal entries are not always repeated.

How the values were obtained:
Cav3.2 = target: T1, Cav3.2 (Homo sapiens, UniProt O95180); test: Cav3.2 electrophysiology; assay type: cell-based; settings: Vh=−80 mV
T1 construct: expressed in transfected cells

[1] = in vivo
[2] = PN003: safety and tolerability; assay type: in vivo; settings: for At least 1 adverse event / Disorientation / Dry mouth / Gastrointestinal Disorders / Hallucinations visual / Headache / Insomnia / Nausea / Nervous System Disorders / Psychiatric Disorders / Somnolence / Vivid dreams: Study PN003/Part I and Part II
Excerpt: Additional adverse events, including mood swings, feeling frightened, laughing intermittently, difficulty moving hands, feeling weak, enhanced taste, loss of fine sensation in fingertips, some loss of sensation at skin level (all over body), and out of body feeling, were reported as the day progressed. All adverse events were mild or moderate in severity. Most events began minutes to hours after dosing, and all had resolved by 3 days after dosing. The adverse events that the subject experienced were described as “mood swings” and led to discontinuation of dosing. […] In addition, they reported feeling angry towards another subject, feeling dizzy/drunk, intense daydreams, shaking/trembling, and sweating. All adverse events were mild in severity, and all were considered possibly related to the study drug. The last dose of CX-8998 was not administered. All adverse events resolved after discontinuation of the study drug. […] The subject experienced nervous system-related events of gradually increasing severity, including lightheadedness, euphoria, tiredness, headache, hard to follow thoughts, vulnerable thoughts and emotions, feeling flat, and weak in the muscles. All adverse events were mild or moderate in severity, and all were considered possibly related to the study drug. The last dose of CX-8998 was not administered. All adverse events resolved after discontinuation of the study drug. […] Oxygen saturation and serum glucose levels were within normal limits, but the subject's blood pressure was low at the time of the event (76/43 mmHg, with a pulse rate of 59 bpm). […] The event was judged by the investigator as moderate in severity and as probably related to the study drug. The subject was discontinued from the study because of ongoing nausea and feelings of weakness and lethargy. […] The subject was not on telemetry at the time. The investigator considered the event to be a vasovagal reaction (moderate in severity) and assessed the event as unrelated to the study drug. The subject continued in the study and completed the planned 7 days of treatment. […] A washout period of at least 2 weeks separated the treatment periods. […] The PSG recordings were initiated at each subject's habitual bedtime and continued for 8 hours. In addition to PSG recordings, subjects were evaluated on the next day with subjective measures of sleep quality (Leeds Sleep Evaluation Questionnaire) and sleepiness (Karolinska Sleepiness Scale) and with cognitive and motor tasks to assess next-morning residual effects. An interim analysis of the primary endpoint (slow wave activity in the first one-third of sleep) was performed after 24 subjects had completed Part I of the study (Section 5.3.3.1.2). The study was adaptively designed to allow a re-estimation of the sample size after the interim analysis. Based on the results of the interim analysis, the study could be stopped if the efficacy criterion (increase in slow wave activity, p<0.05) or futility criterion (p>0.25) was achieved. If neither criterion was met, a re-estimation of the sample size was specified, with the ability to enroll up to 24 additional subjects. […] As in Part I of the study, PSG recordings were initiated at each subject's habitual bedtime and continued for 8 hours, and subjects were evaluated on the next day with subjective measures of sleep quality (Leeds Sleep Evaluation Questionnaire) and sleepiness (Karolinska Sleepiness Scale) and with cognitive and motor tasks to assess next-morning residual effects.
All reported adverse experiences were temporary and generally of mild intensity.
The visual disturbances tended to cease with eye opening and to recur with eye closure and were generally not disturbing to the subjects. […] No serious adverse events were reported, and none of the subjects discontinued treatment because of an adverse event. […] 5.3.3.1.3.2 Other Safety Assessments No clinically significant trends in safety laboratory parameters or vital signs were observed. […]

[3] = test system: patients with essential tremor; test: T-CALM: TETRAS total score; assay type: in vivo, human
Protocol: The Total TETRAS score was defined as the sum of the TETRAS performance subscale total score and the TETRAS ADL subscale score. TETRAS TOTAL score combines both patient reported outcome and objective measurement of tremor amplitude in a single score. Analyses of the TETRAS-ADL was conducted using the same type of ANCOVA model as described for the TETRAS-PS, using two-sided tests at the alpha=0.05 level of significance (FIG. 3 and Table 3).

[4] = test system: patients with essential tremor; test: T-CALM: TETRAS-PS spiral task (item 6); assay type: in vivo, human
Protocol: The Archimedes spiral item of the TETRAS-PS subscale (Item 6) incorporates a routine clinical assessment of functional tremor impact into the TETRAS scoring of tremor severity. […] The investigator then asks the subject to copy the spiral. Each hand is tested and scored separately. […] The tremor in the spiral is scored, not the movement of the limb.
Scores for TETRAS-PS subscale item 6 were summed for both hands and the mean change from baseline was calculated for Day 15 and Day 28 (FIG. 4 and Table 4). Statistical significance was calculated by Mann-Whitney non-parametric t-test (two tailed).

[5] = doses up to 6000 μg/plate
[6] = single dose 4 mg, N = 12 exposures
[7] = single dose 8 mg, N = 9 exposures
[8] = single dose 12 mg, N = 54 exposures

T1 sequence (O95180 whole entry): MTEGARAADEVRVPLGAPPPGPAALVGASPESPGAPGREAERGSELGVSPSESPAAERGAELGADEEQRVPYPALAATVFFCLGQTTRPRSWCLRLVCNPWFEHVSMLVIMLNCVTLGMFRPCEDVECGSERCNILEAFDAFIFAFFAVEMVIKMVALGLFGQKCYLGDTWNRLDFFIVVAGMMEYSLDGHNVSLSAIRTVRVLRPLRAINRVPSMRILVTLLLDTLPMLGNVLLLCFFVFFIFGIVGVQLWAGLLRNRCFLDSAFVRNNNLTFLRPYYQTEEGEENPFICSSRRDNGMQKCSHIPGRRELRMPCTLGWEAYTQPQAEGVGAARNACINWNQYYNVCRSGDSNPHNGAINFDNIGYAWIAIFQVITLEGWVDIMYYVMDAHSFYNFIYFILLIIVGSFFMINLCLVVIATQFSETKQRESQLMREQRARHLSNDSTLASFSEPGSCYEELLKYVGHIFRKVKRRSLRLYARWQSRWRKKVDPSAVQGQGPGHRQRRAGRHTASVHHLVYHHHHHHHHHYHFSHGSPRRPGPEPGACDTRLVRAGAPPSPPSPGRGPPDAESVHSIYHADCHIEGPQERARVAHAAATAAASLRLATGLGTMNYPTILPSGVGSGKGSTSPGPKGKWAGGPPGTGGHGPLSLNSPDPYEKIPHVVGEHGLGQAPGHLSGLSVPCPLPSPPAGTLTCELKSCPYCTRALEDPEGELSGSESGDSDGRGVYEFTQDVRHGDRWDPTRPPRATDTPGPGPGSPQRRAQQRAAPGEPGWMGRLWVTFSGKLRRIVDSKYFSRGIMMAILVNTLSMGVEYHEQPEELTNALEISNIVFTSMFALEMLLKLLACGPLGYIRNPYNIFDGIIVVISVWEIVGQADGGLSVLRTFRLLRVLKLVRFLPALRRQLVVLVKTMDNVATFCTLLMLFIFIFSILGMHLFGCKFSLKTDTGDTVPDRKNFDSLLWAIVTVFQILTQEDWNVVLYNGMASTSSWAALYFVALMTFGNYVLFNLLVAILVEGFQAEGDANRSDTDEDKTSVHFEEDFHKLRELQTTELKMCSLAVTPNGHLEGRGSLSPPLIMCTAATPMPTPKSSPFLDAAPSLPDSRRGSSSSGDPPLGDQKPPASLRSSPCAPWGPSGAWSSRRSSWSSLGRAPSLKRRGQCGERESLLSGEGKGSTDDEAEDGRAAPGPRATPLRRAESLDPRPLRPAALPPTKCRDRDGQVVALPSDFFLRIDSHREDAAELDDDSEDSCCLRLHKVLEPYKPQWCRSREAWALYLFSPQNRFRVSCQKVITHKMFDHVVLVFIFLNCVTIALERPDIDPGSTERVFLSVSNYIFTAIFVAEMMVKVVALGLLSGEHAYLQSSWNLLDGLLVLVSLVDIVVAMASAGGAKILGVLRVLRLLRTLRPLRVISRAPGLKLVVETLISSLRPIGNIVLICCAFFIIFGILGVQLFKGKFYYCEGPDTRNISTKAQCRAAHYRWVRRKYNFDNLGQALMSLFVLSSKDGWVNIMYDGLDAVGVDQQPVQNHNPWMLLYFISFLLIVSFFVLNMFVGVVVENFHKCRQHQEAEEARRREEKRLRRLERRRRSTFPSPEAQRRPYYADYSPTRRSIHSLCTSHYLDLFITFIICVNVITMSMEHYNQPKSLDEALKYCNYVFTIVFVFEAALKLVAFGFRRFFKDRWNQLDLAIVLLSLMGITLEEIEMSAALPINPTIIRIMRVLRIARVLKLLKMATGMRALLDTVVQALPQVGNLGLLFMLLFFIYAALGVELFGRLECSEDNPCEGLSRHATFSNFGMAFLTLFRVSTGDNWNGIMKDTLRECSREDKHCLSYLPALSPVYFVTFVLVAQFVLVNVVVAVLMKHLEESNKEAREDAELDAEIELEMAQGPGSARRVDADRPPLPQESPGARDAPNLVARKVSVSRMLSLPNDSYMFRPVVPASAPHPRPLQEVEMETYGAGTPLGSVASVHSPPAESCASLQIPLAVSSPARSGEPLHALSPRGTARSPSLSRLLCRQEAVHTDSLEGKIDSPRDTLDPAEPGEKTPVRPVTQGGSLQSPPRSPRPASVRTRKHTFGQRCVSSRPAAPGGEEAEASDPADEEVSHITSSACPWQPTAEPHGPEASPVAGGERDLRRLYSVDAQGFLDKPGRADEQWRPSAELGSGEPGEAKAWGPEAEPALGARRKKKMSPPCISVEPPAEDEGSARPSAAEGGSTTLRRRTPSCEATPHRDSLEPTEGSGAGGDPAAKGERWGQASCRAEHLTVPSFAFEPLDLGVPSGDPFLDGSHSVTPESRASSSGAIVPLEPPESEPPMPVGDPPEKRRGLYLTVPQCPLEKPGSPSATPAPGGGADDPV

CC(C)c1ccc(CC(=O)N[C@H](C)c2ccc(OCC(F)(F)F)cn2)cc1 [CX-8998]
IC50 (Cav3.2): 96 nM | Micronuclei induction in bone marrow result [1]: negative | Exposures with increase from baseline of ≥30 and ≤60 msec in QTc ([2]; 8 mg): 11.1% | Exposures with increase from baseline of ≥30 and ≤60 msec in QTc ([2]; 12 mg): 5.6% | At least 1 adverse event ([2]; Any Dose, N = 75 exposures): 33 (44.0) n (%) | Disorientation ([2]; Any Dose, N = 75 exposures): 3 (4.0) n (%) | Dry mouth ([2]; Any Dose, N = 75 exposures): 2 (2.7) n (%) | Gastrointestinal Disorders ([2]; Any Dose, N = 75 exposures): 7 (9.3) n (%) | Hallucinations visual ([2]; Any Dose, N = 75 exposures): 4 (5.3) n (%) | Headache ([2]; Any Dose, N = 75 exposures): 9 (12.0) n (%) | Insomnia ([2]; Any Dose, N = 75 exposures): 3 (4.0) n (%) | Nausea ([2]; Any Dose, N = 75 exposures): 2 (2.7) n (%) | Nervous System Disorders ([2]; Any Dose, N = 75 exposures): 15 (20.0) n (%) | Psychiatric Disorders ([2]; Any Dose, N = 75 exposures): 17 (22.7) n (%) | Somnolence ([2]; Any Dose, N = 75 exposures): 6 (8.0) n (%) | Vivid dreams ([2]; Any Dose, N = 75 exposures): 4 (5.3) n (%) | At least 1 adverse event [2, 6]: 4 (33.3) n (%) | Disorientation [2, 6]: 0 n (%) | Dry mouth [2, 6]: 0 n (%) | Gastrointestinal Disorders [2, 6]: 1 (8.3) n (%) | Hallucinations visual [2, 6]: 2 (16.7) n (%) | Headache [2, 6]: 1 (8.3) n (%) | Insomnia [2, 6]: 1 (8.3) n (%) | Nausea [2, 6]: 1(8.3) n (%) | Nervous System Disorders [2, 6]: 2 (16.7) n (%) | Psychiatric Disorders [2, 6]: 3 (25.0) n (%) | Somnolence [2, 6]: 1 (8.3) n (%) | Vivid dreams [2, 6]: 0 n (%) | At least 1 adverse event [2, 7]: 2 (22.2) n (%) | Disorientation [2, 7]: 0 n (%) | Dry mouth [2, 7]: 0 n (%) | Gastrointestinal Disorders [2, 7]: 1 (11.1) n (%) | Hallucinations visual [2, 7]: 0 n (%) | Headache [2, 7]: 0 n (%) | Insomnia [2, 7]: 0 n (%) | Nausea [2, 7]: 0 n (%) | Nervous System Disorders [2, 7]: 1 (11.1) n (%) | Psychiatric Disorders [2, 7]: 0 n (%) | Somnolence [2, 7]: 1 (11.1) n (%) | Vivid dreams [2, 7]: 0 n (%) | At least 1 adverse event [2, 8]: 27 (50.0) n (%) | Disorientation [2, 8]: 3 (5.6) n (%) | Dry mouth [2, 8]: 2 (3.7) n (%) | Gastrointestinal Disorders [2, 8]: 5 (9.3) n (%) | Hallucinations visual [2, 8]: 2 (3.7) n (%) | Headache [2, 8]: 8 (14.8) n (%) | Insomnia [2, 8]: 2 (3.7) n (%) | Nausea [2, 8]: 1 (1.9) n (%) | Nervous System Disorders [2, 8]: 12 (22.2) n (%) | Psychiatric Disorders [2, 8]: 14 (25.9) n (%) | Somnolence [2, 8]: 4 (7.4) n (%) | Vivid dreams [2, 8]: 4 (7.4) n (%) | Change from baseline in TETRAS-Total, LS mean ([3]; Day 15 (8 mg BID)): −7.5±1.42 and −7.5 | Change from baseline in TETRAS-Total, LS mean ([3]; Day 28 (10 mg BID)): −9.0±1.66 and −9 | >5 to 10 point worsening ([3]; TETRAS Total, Day 15): 0 n (%) | >10 point worsening ([3]; TETRAS Total, Day 15): 0 n (%) | 0 change ([3]; TETRAS Total, Day 28): 0 n (%) | >5 to 10 point worsening ([3]; TETRAS Total, Day 28): 0 n (%) | >10 point worsening ([3]; TETRAS Total, Day 28): 0 n (%) | Change from baseline in TETRAS-PS spiral item, mean ([4]; Day 15 (8 mg BID)): −0.41 | Change from baseline in TETRAS-PS spiral item, mean ([4]; Day 28 (10 mg BID)): −0.658 | Ames assay result [5]: negative
